# Experimental data taken from ChEMBL document CHEMBL1201862, “PubChem BioAssay data set” (2004).
#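 1) Cells in 96-well plates. 2) Compound, 48 h, 5 concentrations. 3) Linear interpolation between surrounding doses. 4) Unreached endpoint = highest concentration. GI50 is the concentration that inhibits growth by half.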 The source made the active and inactive calls. Rule as the data show it: active = GI50 up to about 1.1 µM and inactive = higher.
# Assays:
# Assay in all cases: NCI tumour cell line growth inhibition, 48 h
# 786-0 = test system: 786-0
# A498 = test system: A498
# A549 = test system: A549
# ACHN = test system: ACHN
# BT-549 = test system: BT-549
# CAKI-1 = test system: CAKI-1
# CCRF-CEM = test system: CCRF-CEM
# COLO 205 = test system: COLO 205
# DLD-1 = test system: DLD-1
# DMS-114 = test system: DMS-114
# DMS-273 = test system: DMS-273
# DU-145 = test system: DU-145
# EKVX = test system: EKVX
# HCC 2998 = test system: HCC 2998
# HCT-116 = test system: HCT-116
# HCT-15 = test system: HCT-15
# HL-60 = test system: HL-60
# HOP-18 = test system: HOP-18
# HOP-62 = test system: HOP-62
# HOP-92 = test system: HOP-92
# HT-29 = test system: HT-29
# Hs-578T = test system: Hs-578T
# IGROV-1 = test system: IGROV-1
# K562 = test system: K562
# KM-20L2 = test system: KM-20L2
# KM12 = test system: KM12
# LOX IMVI = test system: LOX IMVI
# LXFL 529 = test system: LXFL 529
# M14 = test system: M14
# M19-MEL = test system: M19-MEL
# MCF7 = test system: MCF7
# MDA-MB-231 = test system: MDA-MB-231
# MDA-MB-435 = test system: MDA-MB-435
# MDA-N = test system: MDA-N
# MOLT-4 = test system: MOLT-4
# Malme-3M = test system: Malme-3M
# NCI-H226 = test system: NCI-H226
# NCI-H23 = test system: NCI-H23
# NCI-H460 = test system: NCI-H460
# NCI-H522 = test system: NCI-H522
# NCI/ADR-RES = test system: NCI/ADR-RES
# OVCAR-3 = test system: OVCAR-3
# OVCAR-4 = test system: OVCAR-4
# OVCAR-5 = test system: OVCAR-5
# OVCAR-8 = test system: OVCAR-8
# PC-3 = test system: PC-3
# RPMI-8226 = test system: RPMI-8226
# RXF 393 = test system: RXF 393
# RXF 631 = test system: RXF 631
# SF-268 = test system: SF-268
# SF-295 = test system: SF-295
# SF-539 = test system: SF-539
# SK-MEL-28 = test system: SK-MEL-28
# SK-MEL-2 = test system: SK-MEL-2
# SK-MEL-5 = test system: SK-MEL-5
# SK-OV-3 = test system: SK-OV-3
# SN12C = test system: SN12C
# SNB-19 = test system: SNB-19
# SNB-75 = test system: SNB-75
# SNB-78 = test system: SNB-78
# SR = test system: SR
# SW-620 = test system: SW-620
# T47D = test system: T47D
# TK-10 = test system: TK-10
# U-251 = test system: U-251
# UACC-257 = test system: UACC-257
# UACC-62 = test system: UACC-62
# UO-31 = test system: UO-31
# XF498 = test system: XF498
smiles,measurement,setting,value
COc1ccc2c(c1)c1ccc3c(c1n2C)C(=O)C=CC3=O,GI50,786-0,6.78 µM (inactive)
same,GI50,A498,25.4 µM (inactive)
same,GI50,A549,29 µM (inactive)
same,GI50,ACHN,6.24 µM (inactive)
same,GI50,BT-549,3.77 µM (inactive)
same,GI50,CAKI-1,8.26 µM (inactive)
same,GI50,CCRF-CEM,0.455 µM (active)
same,GI50,COLO 205,9.75 µM (inactive)
same,GI50,DLD-1,7.4 µM (inactive)
same,GI50,DMS-114,20.7 µM (inactive)
same,GI50,DMS-273,24.3 µM (inactive)
same,GI50,DU-145,9.77 µM (inactive)
same,GI50,EKVX,14.1 µM (inactive)
same,GI50,HCC 2998,17.9 µM (inactive)
same,GI50,HCT-116,5.42 µM (inactive)
same,GI50,HCT-15,4.72 µM
same,GI50,HL-60,0.904 µM (active)
same,GI50,HOP-18,12.2 µM (inactive)
same,GI50,HOP-62,35.5 µM (inactive)
same,GI50,HOP-92,4.95 µM (inactive)
same,GI50,HT-29,14 µM (inactive)
same,GI50,Hs-578T,8.09 µM (inactive)
same,GI50,IGROV-1,12.7 µM (inactive)
same,GI50,K562,1.22 µM (inactive)
same,GI50,KM-20L2,38.5 µM (inactive)
same,GI50,KM12,18 µM (inactive)
same,GI50,LOX IMVI,8.83 µM (inactive)
same,GI50,LXFL 529,14.1 µM (inactive)
same,GI50,M14,10.4 µM (inactive)
same,GI50,M19-MEL,25.4 µM (inactive)
same,GI50,MCF7,2.45 µM (inactive)
same,GI50,MDA-MB-231,5.18 µM (inactive)
same,GI50,MDA-MB-435,7.96 µM (inactive)
same,GI50,MDA-N,8.91 µM (inactive)
same,GI50,MOLT-4,0.834 µM (active)
same,GI50,Malme-3M,7.76 µM (inactive)
same,GI50,NCI-H226,14.3 µM (inactive)
same,GI50,NCI-H23,13 µM (inactive)
same,GI50,NCI-H460,26.9 µM (inactive)
same,GI50,NCI-H522,3.15 µM (inactive)
same,GI50,NCI/ADR-RES,5.79 µM (inactive)
same,GI50,OVCAR-3,8.39 µM (inactive)
same,GI50,OVCAR-4,8.38 µM (inactive)
same,GI50,OVCAR-5,15.2 µM (inactive)
same,GI50,OVCAR-8,11.4 µM (inactive)
same,GI50,PC-3,12.8 µM (inactive)
same,GI50,RPMI-8226,2.17 µM (inactive)
same,GI50,RXF 393,5.35 µM (inactive)
same,GI50,RXF 631,20 µM (inactive)
same,GI50,SF-268,15 µM (inactive)
same,GI50,SF-295,24.3 µM (inactive)
same,GI50,SF-539,13 µM (inactive)
same,GI50,SK-MEL-28,9.55 µM (inactive)
same,GI50,SK-MEL-2,17.2 µM (inactive)
same,GI50,SK-MEL-5,19.3 µM (inactive)
same,GI50,SK-OV-3,29.2 µM (inactive)
same,GI50,SN12C,8.38 µM (inactive)
same,GI50,SNB-19,26 µM (inactive)
same,GI50,SNB-75,31.7 µM (inactive)
same,GI50,SNB-78,20.9 µM (inactive)
same,GI50,SR,0.813 µM (active)
same,GI50,SW-620,4.1 µM (inactive)
same,GI50,T47D,2.21 µM (inactive)
same,GI50,TK-10,7.76 µM (inactive)
same,GI50,U-251,12.5 µM (inactive)
same,GI50,UACC-257,10.9 µM (inactive)
same,GI50,UACC-62,12.8 µM (inactive)
same,GI50,UO-31,11.4 µM (inactive)
same,GI50,XF498,17.2 µM (inactive)
